{"source": "patent EP3349734B1", "about": "“USE OF SOLUBLE AND INSOLUBLE FRACTIONS OF A CYCLODEXTRIN POLYMER AND OF MIXTURES THEREOF AS AN EXCIPIENT IN A TABLET” (Université de Lille, priority 2015, dated 2017)", "assay_type_in_all_cases": "physicochemical", "key": {"[1]": {"assay": "Hygroscopicity: water vapour sorption/desorption isotherm (TGA Q5000 SA, 25°C, up to 98% RH)", "conditions": "up to 98% relative humidity", "method": "Les mesures d'absorption et de désorption d'eau des polymères ont été réalisées à l'aide d'un analyseur thermogravimétrique SA Q5000 de TA Instruments contenant une microbalance dans lequel des creusets contenant l'échantillon et la référence ont été enfermés dans une chambre à humidité et température contrôlées. La température dans le Q5000 SA a été contrôlée par des éléments Peltier. Un gaz sec de N2 (200 mL/min) a été divisé en deux parties, dont une partie a été humidifiée par passage dans une chambre saturée d'eau. L'humidité relative souhaitée (RH) pour les mesures peut ainsi être obtenue par mélange des proportions appropriées (régulées par les contrôleurs de débit massique) de flux sec et humide.\nLa mesure de l'isotherme standard est composée d'un certain nombre d'étapes. Premièrement, l'échantillon a été séché à 60°C et 0% d'humidité relative pendant un temps déterminé jusqu'à ce que la variation de poids soit stabilisée à moins de 0,05%. Dans un second temps, la température a été abaissée à 25°C. L'humidité a ensuite été augmentée progressivement (par pas de 2% d'humidité relative) à un maximum de 98% d'humidité relative. La variation de poids de l'échantillon a été stabilisée après chaque étape jusqu'à ce qu'elle soit inférieure à 0,05%. L'isotherme de désorption de l'eau a également été mesurée. […]"}, "[2]": {"assay": "Tablet breaking strength (hardness), 5 mm / 100 mg tablets", "conditions": "no active ingredient, no other additive", "source_text": "La machine à comprimer alternative utilisée était une Korsch (Allemagne) équipé de poinçon plat cylindrique de diamètre 5 mm. Les étapes de compression étaient les suivantes: (1) le remplissage de la matrice par écoulement du mélange, (2) arasage, (3) compression et (4) éjection du comprimé. L'épaisseur moyenne des comprimés est de 3,2 mm.\nCet essai est destiné à déterminer, dans des conditions définies, la résistance à la rupture des comprimés, mesurée par la force nécessaire pour les rompre par écrasement entre deux mâchoires.\nL'appareil utilisé (PTB 311E, Pharma test Instruments, Inde) est constitué de deux mâchoires se faisant face, dont l'une se déplace vers l'autre qui est fixe. Les surfaces planes des mâchoires sont perpendiculaires à la direction de déplacement.\nLe mode opératoire consistait à mettre en place le comprimé à plat entre les mâchoires, puis, une mâchoire se déplaçait à vitesse constante pour appliquer une force jusqu'à la rupture du comprimé. Cette force maximale est notée et considérée comme la dureté du comprimé. La façon dont un comprimé se fracture quand une force croissante est appliquée varie considérablement selon les diverses caractéristiques des produits."}, "[3]": {"assay": "Phase-solubility diagram of ibuprofène with cyclodextrins or soluble polymer fractions", "conditions": "calculated from slope and So of the solubility diagram", "method": "(§1) Les diagrammes de solubilité de plusieurs principes actifs ont été effectués en présence de cyclodextrines et de fractions solubles de polymères de cyclodextrine mentionnés à l'exemple 1.\n(§2) Des solutions de concentration croissante de cyclodextrines et fractions solubles de polymères de cyclodextrine ont été préparées dans de l'eau ultrapure [0-70 g/L]. 10 mL de chacune des solutions ont été mis en présence d'un excès du principe actif (20 mg) sous agitation pendant 24 heures à température ambiante. Les solutions ont ensuite été filtrées avec une membrane en cellulose et en Nylon (0,45 µm; VWR International, USA) respectivement pour l'Ibuprofène et le Piroxicam. L'ibuprofène a été dosé par HPLC (Shimadzu LC-2010 HT Liquid Chromatography), la phase mobile de l'ibuprofène est un mélange acétonitrile/eau (60:40) avec un pH de 2,25, une colonne C18 a été utilisée. Le piroxicam a été dosé par spectrophotométrie UV-Vis à 356 nm (UV 1800 Shimadzu).\n(§3) La constante de stabilité (K1:1) est utilisée pour comparer l'affinité de principes actifs pour différentes cyclodextrines ou dérivés. La solubilité totale de médicament (St) en solution aqueuse de cyclodextrine sera : [formula]\n(§4) So = solubilité intrinsèque du médicament; [CD]1 = concentration totale en cyclodextrine dans le milieu aqueux\n(§5) Une parcelle de St rapport [CD] t, selon l'équation (1), donnera une ligne droite avec une pente (K 1:1 So / (1 + K 1:1 So)) et une interception (Sint) égale à So. K 1:1 est calculée à partir de la pente et So : [formula]\nAfin de pouvoir faire une comparaison directe entre cyclodextrine monomère et cyclodextrine polymérisée, les diagrammes de solubilité sont présentés en fonction de la concentration rapportée en gramme de monomère de cyclodextrine par litre. Tableau 3 : Solubilité de l'ibuprofène et constantes de complexation en présence des cyclodextrines ou de fractions solubles de polymères de cyclodextrine à 10 et 50 g/L en cyclodextrine. L'utilisation de cyclodextrines sous forme de monomères ne tombe pas sous l'étendue de la protection revendiquée."}, "[4]": {"assay": "Phase-solubility diagram of piroxicam with cyclodextrins or soluble polymer fractions", "conditions": "calculated from slope and So of the solubility diagram", "method": "as §1, §2, §3, §4, §5"}, "[5]": {"assay": "Tablet disintegration time in water", "conditions": "100 mg tablets", "method": "L'appareil utilisé était un appareil de désintégration manuelle PTZ-S, Pharma Test Instruments (Inde), composé d'un panier porte-tubes, un vase cylindrique bas de 1000 mL destiné à contenir le fluide d'immersion, un agencement thermostatique pour chauffer le fluide entre 35°C et 39°C, et d'un dispositif servant à imprimer au porte-tubes, dans le liquide d'immersion, un mouvement vertical alternatif. Le panier est composé de six tubes transparents verticaux, ouverts à leur extrémité supérieure et fermés à l'extrémité inférieure par une grille, un comprimé était placé dans chacun des six tubes du panier. Le fluide d'immersion était l'eau.\nLe temps de désintégration a été déterminé comme le temps nécessaire pour que les comprimés passent à travers les mailles de la grille."}, "[6]": {"assay": "Tapped density, Carr compressibility index and flow of the powder", "conditions": "for TAP (Ic^∗): Carr index after 500 taps", "method": "Densité après tassement et indice de compressibilité de la composition compressible.\nL'appareil utilisé est un appareil de tassement (Engelsmann powder tester, PTTD200, Pharma Test Instruments, India) composé d'une éprouvette graduée de 100 mL sur un socle vibrant. Les manipulations ont été réalisées suivant les conditions décrites dans la pharmacopée européenne (1997). Pour chaque poudre, le volume initial avant tassement est mesuré (V0) permettant de calculer la densité p0. Le volume final (Vf) de la poudre est ensuite mesuré après 500 tassements. La densité finale de la poudre après tassement peut ainsi être calculée (pf). On en déduit également l'indice de compressibilité ou Indice de Carr (Ic) donné par la formule suivante : [formula]\nLes poudres ayant un indice de Carr inférieur à 20% présentent un bon écoulement."}}, "data": [{"smiles": "OC[C@H]1O[C@@H]2O[C@H]3[C@H](O)[C@@H](O)[C@@H](O[C@H]4[C@H](O)[C@@H](O)[C@@H](O[C@H]5[C@H](O)[C@@H](O)[C@@H](O[C@H]6[C@H](O)[C@@H](O)[C@@H](O[C@H]7[C@H](O)[C@@H](O)[C@@H](O[C@H]8[C@H](O)[C@@H](O)[C@@H](O[C@H]1[C@H](O)[C@H]2O)O[C@@H]8CO)O[C@@H]7CO)O[C@@H]6CO)O[C@@H]5CO)O[C@@H]4CO)O[C@@H]3CO", "note": "[βCD, β-cyclodextrine]", "values": [{"measurement": "valeur maximale de prise d'eau", "setting": "[1]", "value": "0,18 g/g"}, {"measurement": "Résistance à la rupture", "setting": "[2]", "value": "45-50 N"}, {"measurement": "Constante de complexation K1:1", "setting": "[3]", "value": 11, "unit": "M⁻¹"}, {"measurement": "Constante de complexation K1:1", "setting": "[4]", "value": 173, "unit": "M⁻¹"}, {"measurement": "Temps de désagrégation", "setting": "[5]", "value": "> 30", "unit": "min"}, {"measurement": "TAP (Ic^∗)", "setting": "[6]", "value": "> 20", "unit": "%"}, {"measurement": "TAP (Ic^∗)", "setting": "[6]; listed as CD (monomère)", "value": "23,1%"}, {"measurement": "Ecoulement", "setting": "[6]; powder of βCD polymer fractions", "value": "Non Libre"}]}]}
